Laboratory results published in ChEMBL document CHEMBL3045429, “Exploration of antimicrobial potential of pyrazolo[3,4-b]pyridine scaffold bearing benzenesulfonamide and trifluoromethyl moieties” (2013).
≈ marks a conversion by molar mass, not a printed value. Calls of active or inactive are those of the source. The calls are words filed in the database; no cut-off is given here.

How the values were obtained:
[1] = system: Pseudomonas aeruginosa; test: microbe, parasite or virus in culture; settings: MTCC 741, 24 h, read-out: DIZ
Description: Antibacterial activity against Pseudomonas aeruginosa MTCC 741 assessed as growth inhibition at 4 mg/mL after 24 hr by agar well diffusion method

[2] = system: Staphylococcus aureus; test: Antibacterial activity against Staphylococcus aureus MTCC 96 assessed as growth inhibition at 4 mg/mL after 24 hr by agar well diffusion method; assay type: functional; settings: MTCC 96, 24 h, read-out: DIZ
[3] = system: Bacillus subtilis; test: Antibacterial activity against Bacillus subtilis MTCC 121 assessed as growth inhibition after 24 hr by agar well diffusion method; assay type: functional; settings: MTCC 121, 24 h
[4] = system: Staphylococcus aureus; test: Antibacterial activity against Staphylococcus aureus MTCC 96 assessed as growth inhibition after 24 hr by agar well diffusion method; assay type: functional; settings: MTCC 96, 24 h
[5] = system: Bacillus subtilis; test: Antibacterial activity against Bacillus subtilis MTCC 121 assessed as growth inhibition at 4 mg/mL after 24 hr by agar well diffusion method; assay type: functional; settings: MTCC 121, 24 h, read-out: DIZ
[6] = system: Candida albicans; test: Antifungal activity against Candida albicans MTCC 227 assessed as growth inhibition at 4 mg/mL after 24 hr by agar well diffusion method; assay type: functional; settings: MTCC 227, 24 h, read-out: DIZ
[7] = system: Saccharomyces cerevisiae; test: Antifungal activity against Saccharomyces cerevisiae MTCC 170 assessed as growth inhibition at 4 mg/mL after 24 hr by agar well diffusion method; assay type: functional; settings: MTCC 170, 24 h, read-out: DIZ
[8] = system: Escherichia coli; test: Antibacterial activity against Escherichia coli MTCC 1652 assessed as growth inhibition at 4 mg/mL after 24 hr by agar well diffusion method; assay type: functional, organism-based
[9] = system: Saccharomyces cerevisiae; test: Antifungal activity against Saccharomyces cerevisiae MTCC 170 assessed as growth inhibition after 24 hr by agar well diffusion method; assay type: functional; settings: MTCC 170, 24 h
[10] = system: Candida albicans; test: Antifungal activity against Candida albicans MTCC 227 assessed as growth inhibition after 24 hr by agar well diffusion method; assay type: functional; settings: MTCC 227, 24 h

With O=C(O)c1cn(C2CC2)c2cc(N3CCNCC3)c(F)cc2c1=O [CIPROFLOXACIN] the zone of inhibition at 4000 µg/mL [1] was 22 mm, the zone of inhibition at 4000 µg/mL [2] was 26.6 mm and the MIC [3] was 5 mg/L (≈ 15.1 µM). For the same compound, the MIC [4] was 5 mg/L (≈ 15.1 µM) and the zone of inhibition at 4000 µg/mL [5] was 24 mm.

For NS(=O)(=O)c1ccc(-n2nc(-c3ccccc3)c3c(C(F)(F)F)cc(-c4ccc(Br)cc4)nc32)cc1, the zone of inhibition at 4000 µg/mL [6] was 13.6 mm, the zone of inhibition at 4000 µg/mL [7] was 14.6 mm and the “growth inhibition (GI)” value [8] was “inactive”. For the same compound, the MIC [9] was 256 mg/L (≈ 446 µM), the zone of inhibition at 4000 µg/mL [2] was 18.3 mm and the MIC [10] was > 256 mg/L. For the same compound, the MIC [3] was 64 mg/L (≈ 112 µM), the MIC [4] was 64 mg/L (≈ 112 µM) and the zone of inhibition at 4000 µg/mL [5] was 17.6 mm.

With NS(=O)(=O)c1ccc(-n2nc(-c3ccc(Cl)cc3)c3c(C(F)(F)F)cc(C(F)(F)F)nc32)cc1 the zone of inhibition at 4000 µg/mL [6] was 16.3 mm, the zone of inhibition at 4000 µg/mL [7] was 14.6 mm and the “growth inhibition (GI)” value [8] was “inactive”. The MIC [9] was 64 mg/L (≈ 123 µM), the zone of inhibition at 4000 µg/mL [2] was 16.3 mm and the MIC [10] was 64 mg/L (≈ 123 µM). It also gave an MIC [3] of 128 mg/L (≈ 246 µM), an MIC [4] of 128 mg/L (≈ 246 µM) and a zone of inhibition at 4000 µg/mL [5] of 15.6 mm.
